According to ChEMBL document CHEMBL5360558, “Molecular design, synthesis and anticancer activity of new thiopyrano[2,3-d]thiazoles based on 5-hydroxy-1,4-naphthoquinone (juglone)” (Eur J Med Chem, 2023):

Experiments:
[1] = Acute toxicity in C57BL/6 mouse assessed as ratio of kidney weight to body weight at 20 mg/kg,ip administration and observed after 22 days (reference value: 1.39 +/- 0.09); type: organism-based; conditions: in vivo, 528 h, time 22 day
[2] = tested on: SNB-19; test: Growth inhibition against human SNB-19 cells assessed as total growth inhibitory concentration incubated for 48 hrs by sulforhodamine B spectrophotometric assay; type: functional
[3] = tested on: NCI/ADR-RES; test: Growth inhibition against human NCI/ADR-RES cells assessed as lethal concentration incubated for 48 hrs by sulforhodamine B spectrophotometric assay; type: functional; conditions: read-out: LC50 (the source's name)
[4] = tested on: MDA-MB-231; test: Induction of apoptosis in human MDA-MB-231 cells assessed as increase in caspase 3/7 activity at 10 uM incubated for 24 hrs by flow cytometry analysis; type: functional
[5] = tested on: MCF7; test: Growth inhibition of human MCF7 cells incubated for 48 hrs by sulforhodamine B spectrophotometric assay; type: functional
[6] = Acute toxicity in C57BL/6 mouse assessed as change in white blood cells at 20 mg/kg,ip administration observed after 22 days; type: organism-based; conditions: in vivo, 528 h, time 22 day
[7] = tested on: DU-145; test: Growth inhibition of human DU-145 cells incubated for 48 hrs by sulforhodamine B spectrophotometric assay; type: functional
[8] = tested on: HOP-92; test: Growth inhibition of human HOP-92 cells incubated for 48 hrs by sulforhodamine B spectrophotometric assay; type: functional
[9] = tested on: BT-549; test: Growth inhibition against human BT-549 cells assessed as total growth inhibitory concentration incubated for 48 hrs by sulforhodamine B spectrophotometric assay; type: functional
[10] = Acute toxicity in C57BL/6 mouse assessed as ratio of spleen weight to body weight at 20 mg/kg,ip administration and observed after 22 days (reference value: 0.53 +/- 0.18); type: organism-based; conditions: in vivo, 528 h, time 22 day
[11] = tested on: CCRF-CEM; test: Growth inhibition against human CCRF-CEM cells assessed as lethal concentration incubated for 48 hrs by sulforhodamine B spectrophotometric assay; type: functional; conditions: read-out: LC50 (the source's name)
[12] = tested on: SF-539; test: Growth inhibition of human SF-539 cells incubated for 48 hrs by sulforhodamine B spectrophotometric assay; type: functional
[13] = tested on: CCRF-CEM; test: Growth inhibition of human CCRF-CEM cells incubated for 48 hrs by sulforhodamine B spectrophotometric assay; type: functional
[14] = tested on: MDA-MB-231; test: Induction of mitochondrial membrane potential loss in human MDA-MB-231 cells at 10 uM incubated for 24 hrs by JC-1 staining based flow cytometry analysis; type: functional
[15] = tested on: NCI-H322M; test: Growth inhibition against human NCI-H322M cells assessed as lethal concentration incubated for 48 hrs by sulforhodamine B spectrophotometric assay; type: functional; conditions: read-out: LC50 (the source's name)
[16] = tested on: UACC-257; test: Growth inhibition against human UACC-257 cells assessed as total growth inhibitory concentration incubated for 48 hrs by sulforhodamine B spectrophotometric assay; type: functional
[17] = tested on: HL-60; test: Growth inhibition of human HL-60 cells incubated for 48 hrs by sulforhodamine B spectrophotometric assay; type: functional
[18] = Acute toxicity in C57BL/6 mouse assessed as change in hemoglobin level at 20 mg/kg,ip administration observed after 22 days; type: organism-based; conditions: in vivo, 528 h, time 22 day
[19] = tested on: HCT-116; test: Growth inhibition against human HCT-116 cells assessed as lethal concentration incubated for 48 hrs by sulforhodamine B spectrophotometric assay; type: functional; conditions: read-out: LC50 (the source's name)
[20] = tested on: Malme-3M; test: Growth inhibition against human Malme-3M cells assessed as lethal concentration incubated for 48 hrs by sulforhodamine B spectrophotometric assay; type: functional; conditions: read-out: LC50 (the source's name)
[21] = tested on: OVCAR-8; test: Growth inhibition against human OVCAR-8 cells assessed as lethal concentration incubated for 48 hrs by sulforhodamine B spectrophotometric assay; type: functional; conditions: read-out: LC50 (the source's name)
[22] = tested on: SNB-75; test: Growth inhibition of human SNB-75 cells incubated for 48 hrs by sulforhodamine B spectrophotometric assay; type: functional
[23] = tested on: OVCAR-8; test: Growth inhibition of human OVCAR-8 cells incubated for 48 hrs by sulforhodamine B spectrophotometric assay; type: functional
[24] = tested on: SNB-19; test: Growth inhibition of human SNB-19 cells incubated for 48 hrs by sulforhodamine B spectrophotometric assay; type: functional
[25] = tested on: SF-268; test: Growth inhibition of human SF-268 cells incubated for 48 hrs by sulforhodamine B spectrophotometric assay; type: functional
[26] = tested on: SF-539; test: Growth inhibition against human SF-539 cells assessed as lethal concentration incubated for 48 hrs by sulforhodamine B spectrophotometric assay; type: functional; conditions: read-out: LC50 (the source's name)
[27] = tested on: SF-539; test: Growth inhibition against human SF-539 cells assessed as total growth inhibitory concentration incubated for 48 hrs by sulforhodamine B spectrophotometric assay; type: functional
[28] = tested on: Hs-578T; test: Growth inhibition against human Hs-578T cells assessed as total growth inhibitory concentration incubated for 48 hrs by sulforhodamine B spectrophotometric assay; type: functional
[29] = tested on: HOP-62; test: Growth inhibition of human HOP-62 cells incubated for 48 hrs by sulforhodamine B spectrophotometric assay; type: functional
[30] = tested on: CCRF-CEM; test: Induction of cell cycle arrest in human CCRF-CEM cells assessed as RNA synthesis at 4.14 uM incubated for 3 hrs by […] incorporation based flow cytometry analysis (reference value: 31.8 +/- 1.17%); type: functional
[31] = tested on: CCRF-CEM; test: Induction of cell cycle arrest in human CCRF-CEM cells assessed as accumulation of cells at M phase at 4.14 uM incubated for 24 hrs by propidium iodide staining based flow cytometry analysis (reference value: 1.97 +/- 0.042%); type: functional
[32] = tested on: HCT-116; test: Growth inhibition against human HCT-116 cells assessed as total growth inhibitory concentration incubated for 48 hrs by sulforhodamine B spectrophotometric assay; type: functional
[33] = tested on: UO-31; test: Growth inhibition against human UO-31 cells assessed as lethal concentration incubated for 48 hrs by sulforhodamine B spectrophotometric assay; type: functional; conditions: read-out: LC50 (the source's name)
[34] = tested on: DU-145; test: Anticancer activity against human DU-145 cells assessed as cell growth at 10 uM incubated for 48 hrs by sulforhodamine B assay; type: functional; conditions: read-out: Activity
[35] = tested on: Hs-578T; test: Growth inhibition of human Hs-578T cells incubated for 48 hrs by sulforhodamine B spectrophotometric assay; type: functional
[36] = Acute toxicity in C57BL/6 mouse assessed as ratio of heart weight to body weight at 20 mg/kg,ip administration and observed after 22 days (reference value: 0.62 +/- 0.08); type: organism-based; conditions: in vivo, 528 h, time 22 day
[37] = tested on: HCC 2998; test: Growth inhibition of human HCC 2998 cells incubated for 48 hrs by sulforhodamine B spectrophotometric assay; type: functional
[38] = tested on: NCI/ADR-RES; test: Growth inhibition of human NCI/ADR-RES cells incubated for 48 hrs by sulforhodamine B spectrophotometric assay; type: functional
[39] = tested on: OVCAR-5; test: Growth inhibition against human OVCAR-5 cells assessed as lethal concentration incubated for 48 hrs by sulforhodamine B spectrophotometric assay; type: functional; conditions: read-out: LC50 (the source's name)
[40] = tested on: SK-OV-3; test: Growth inhibition against human SK-OV-3 cells assessed as lethal concentration incubated for 48 hrs by sulforhodamine B spectrophotometric assay; type: functional; conditions: read-out: LC50 (the source's name)
[41] = tested on: A549; test: Growth inhibition against human A549 cells assessed as total growth inhibitory concentration incubated for 48 hrs by sulforhodamine B spectrophotometric assay; type: functional
[42] = tested on: CCRF-CEM; test: Induction of cell cycle arrest in human CCRF-CEM cells assessed as DNA synthesis at 20.7 uM incubated for 2.5 hrs by BrdU incorporation based flow cytometry analysis (reference value: 42.4 +/- 0.66%); type: functional
[43] = tested on: T47D; test: Growth inhibition against human T47D cells assessed as total growth inhibitory concentration incubated for 48 hrs by sulforhodamine B spectrophotometric assay; type: functional
[44] = tested on: MDA-MB-231; test: Induction of mitochondrial membrane potential loss in human MDA-MB-231 cells at 5 uM incubated for 24 hrs by JC-1 staining based flow cytometry analysis; type: functional

Compound: O=C1C2=C(C(=O)c3c(O)cccc31)C(c1ccco1)c1sc(=O)[nH]c1S2 (centres undefined)
- Ratio [1]: 1.28
- TGI [2]: 7.33 µM
- CC50 [3]: > 100 µM
- Activity [4]: 20.6%
- GI50 [5]: 1.39 µM
- Activity [6]: Non-Toxic
- GI50 [7]: 1.55 µM
- GI50 [8]: 3.15 µM
- TGI [9]: 3.19 µM
- Ratio [10]: 0.51
- CC50 [11]: > 100 µM
- GI50 [12]: 1.93 µM
- GI50 [13]: 3.29 µM
- Activity [14]: 37.3%
- CC50 [15]: 5.74 µM
- TGI [16]: 3.26 µM
- GI50 [17]: 1.82 µM
- Activity [18]: Non-Toxic
- CC50 [19]: > 100 µM
- CC50 [20]: 4.75 µM
- CC50 [21]: 36.2 µM
- GI50 [22]: 3.17 µM
- GI50 [23]: 2.46 µM
- GI50 [24]: 2.6 µM
- GI50 [25]: 3.48 µM
- CC50 [26]: 7.05 µM
- TGI [27]: 3.69 µM
- TGI [28]: 6.56 µM
- GI50 [29]: 2.04 µM
- Activity [30]: 23.46%
- Activity [31]: 1.25%
- TGI [32]: > 100 µM
- CC50 [33]: 36.7 µM
- growth at 10 µM [34]: -93.9%
- GI50 [35]: 2.2 µM
- Ratio [36]: 0.51
- GI50 [37]: 2.5 µM
- GI50 [38]: 3.02 µM
- CC50 [39]: 9.85 µM
- CC50 [40]: 56.5 µM
- TGI [41]: 3.63 µM
- Activity [42]: 0.9%
- TGI [43]: 13 µM
- Activity [44]: 15.7%
